Measurements as given in patent US9434711B2 (Janssen Pharmaceutica, NV, priority 2007, dated 2016).
pIC50: −log10 of the molar value.

Target: canine TRPM8 (Canis lupus familiaris, UniProt Q1A7N1)
Assay: In Vitro Canine TRPM8 Functional Assay (Ca2+ fluorescence, icilin activation)
Format: cell-based
Settings: for pIC50: HEK293 cells stably expressing canine TRPM8, icilin activation, eight-point dose-response, read-out: IC50; for inhibition at 0.5 µM: compound at 0.5 μM, read-out: % Inh @ 0.5; for inhibition at 0.5 µM / inhibition at 0.2 µM / % Inh @ 0.2 (μM): canine TRPM8, icilin activation; for inhibition at 0.2 µM / % Inh @ 0.2 (μM): compound at 0.2 μM; for inhibition at 0.2 µM: read-out: % Inh @ 0.2
How it was run: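 Eight-point dose-response curves, each point averaging quadruplicate wells, gave EC50 or IC50. Canine TRPM8-expressing HEK293 cells, dye-loaded (Calcium 3), were pre-exposed 5 min to compound, then challenged with icilin at roughly EC80; intracellular Ca2+ read by FLIPR or FDSS fluorescence.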

canine TRPM8, sequence (Q1A7N1 1-1104): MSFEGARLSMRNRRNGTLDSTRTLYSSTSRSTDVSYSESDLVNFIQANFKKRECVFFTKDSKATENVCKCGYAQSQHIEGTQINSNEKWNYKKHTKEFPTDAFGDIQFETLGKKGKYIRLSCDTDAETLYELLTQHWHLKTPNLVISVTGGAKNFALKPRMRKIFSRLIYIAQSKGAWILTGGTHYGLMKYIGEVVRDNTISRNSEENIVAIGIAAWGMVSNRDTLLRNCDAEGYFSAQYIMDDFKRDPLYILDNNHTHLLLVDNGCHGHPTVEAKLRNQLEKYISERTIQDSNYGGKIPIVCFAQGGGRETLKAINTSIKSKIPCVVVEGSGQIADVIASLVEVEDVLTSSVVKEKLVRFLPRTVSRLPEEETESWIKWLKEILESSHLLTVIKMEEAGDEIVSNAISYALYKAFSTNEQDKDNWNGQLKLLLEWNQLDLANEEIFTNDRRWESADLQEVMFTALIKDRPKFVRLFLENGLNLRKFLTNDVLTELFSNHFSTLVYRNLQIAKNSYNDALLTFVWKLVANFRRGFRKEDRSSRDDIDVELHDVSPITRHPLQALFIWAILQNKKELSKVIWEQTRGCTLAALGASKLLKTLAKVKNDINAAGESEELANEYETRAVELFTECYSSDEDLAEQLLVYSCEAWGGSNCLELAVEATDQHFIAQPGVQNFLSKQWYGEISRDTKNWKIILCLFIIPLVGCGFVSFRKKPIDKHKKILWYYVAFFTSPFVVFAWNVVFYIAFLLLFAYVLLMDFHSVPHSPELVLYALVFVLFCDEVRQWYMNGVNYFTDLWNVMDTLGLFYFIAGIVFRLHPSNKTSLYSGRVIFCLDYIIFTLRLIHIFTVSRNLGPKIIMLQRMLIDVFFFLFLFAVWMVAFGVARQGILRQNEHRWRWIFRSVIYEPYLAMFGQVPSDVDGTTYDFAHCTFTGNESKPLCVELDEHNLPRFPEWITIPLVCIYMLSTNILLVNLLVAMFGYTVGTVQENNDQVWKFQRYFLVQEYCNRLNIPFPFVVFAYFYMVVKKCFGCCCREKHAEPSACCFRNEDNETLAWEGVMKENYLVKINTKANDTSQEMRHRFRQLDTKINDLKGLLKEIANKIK

Compound | pIC50 | inhibition at 0.5 µM [%] | inhibition at 0.2 µM [%] | % Inh @ 0.2 (μM) [%]
Cc1c(N(Cc2ccc(F)c(F)c2)S(=O)(=O)c2cccc3cnccc23)sc2ccccc12 [Compound 27, N-(3,4-Difluoro-benzyl)-N-(3-methyl-benzo[b]thiophen-2-yl)-isoquinoline-5-sulfonamide] | 7.70 | 99 | – | –
COc1ccc(Br)c(CN(c2sc3ccccc3c2Br)S(=O)(=O)c2ccccc2)c1 [Compound 163, N-(3-Bromo-benzo[b]thiophen-2-yl)-N-(2-bromo-5-methoxy-benzyl)-benzenesulfonamide] | 7.19 | 92 | – | –
CC1=C(N(CCCC(F)(F)F)S(=O)(=O)c2ccccc2)S(=O)(=O)c2ccccc21 [Compound 620, N-(3-Methyl-1,1-dioxo-benzo[b]thiophen-2-yl)-N-(4,4,4-trifluoro-butyl)-benzenesulfonamide] | 7.63 | – | 101 | –
O=S(=O)(c1ccccc1)N(Cc1ccccc1)c1cc2ccccc2s1 [Compound 59, N-(Benzo[b]thiophen-2-yl)-N-(benzyl)-benzenesulfonamide] | 7.35 | 98 | – | –
O=S(=O)(c1cccnc1Cl)N(Cc1ccc(F)c(C(F)(F)F)c1)c1sc2ccccc2c1Cl [Compound 321, N-(3-Chloro-benzo[b]thiophen-2-yl)-N-(4-fluoro-3-trifluoromethyl-benzyl)-2-chloro-pyridin-3-ylsulfonamide] | 7.15 | – | 81 | –
CN(C)Cc1c(N(Cc2ccc(F)c(C(F)(F)F)c2)S(=O)(=O)c2ccccc2)sc2ccccc12 [Compound 418, N-(3-Dimethylaminomethyl-benzo[b]thiophen-2-yl)-N-(4-fluoro-3-trifluoromethyl-benzyl)-benzenesulfonamide] | 7.16 | – | 90 | –
CCS(=O)(=O)N(CC1CC1)c1sc2ccccc2c1C(C)=O [Compound 122, N-(3-Acetyl-benzo[b]thiophen-2-yl)-N-(cyclopropylmethyl)-ethanesulfonamide] | – | – | 23 | –
NS(=O)(=O)N(Cc1ccc(F)c(C(F)(F)F)c1)c1sc2ccccc2c1Br [Compound 301, N-(3-Bromo-benzo[b]thiophen-2-yl)-N (4-fluoro-3-trifluoromethyl-benzyl)-sulfamide] | – | – | – | 63
CC(=O)c1c(N(CCC(F)(F)F)S(=O)(=O)c2ccc(C(=O)O)cc2)sc2ccccc12 [Compound 385, N-(3-Acetyl-benzo[b]thiophen-2-yl)-N-(3,3,3-trifluoro-propyl)-4-carboxy-benzenesulfonamide] | – | – | 54 | –
Cc1c(N(Cc2ccc(F)c(C(F)(F)F)c2)S(=O)(=O)c2cccc3c2CNCC3)sc2ccccc12 [Compound 79, N-(4-Fluoro-3-trifluoromethyl-benzyl)-N-(3-methyl-benzo[b]thiophen-2-yl)-1,2,3,4-tetrahydro-isoquinoline-8-sulfonamide] | – | – | 69 | –
O=C(O)c1cccc(S(=O)(=O)N(Cc2ccc(F)c(C(F)(F)F)c2)c2cc3ccccc3s2)c1 [Compound 295, N-(Benzo[b]thiophen-2-yl)-N-(4-fluoro-3-trifluoromethyl-benzyl)-3-carboxy-benzenesulfonamide] | 7.48 | – | 81 | –
CC(C)(O)c1c(N(Cc2ccc(OC(F)(F)F)cc2)S(=O)(=O)c2ccc(Br)cc2)sc2ccccc12 [Compound 735, N-(3-(1-Hydroxy-1-methyl-ethyl)-benzo[b]thiophen-2-yl)-N-(4-trifluoromethoxybenzyl)-4-bromo-benzenesulfonamide] | 7.57 | – | 101 | –
CC#CCCN(c1sc2ccccc2c1Br)S(=O)(=O)c1ccccc1 [Compound 251, N-(3-Bromo-benzo[b]thiophen-2-yl)-N-(pent-3-ynyl)-benzenesulfonamide] | 7.41 | – | 95 | –
CCCCN(C1=Cc2ccccc2S1(=O)=O)S(=O)(=O)c1ccc(C(=O)OC)cc1 [Compound 430, N-(Butyl)-N-(1,1-dioxo-benzo[b]thiophen-2-yl)-4-carbomethoxy-benzenesulfonamide] | – | – | 52 | –
CCCCN(c1sc2cc(C(F)(F)F)ccc2c1C)S(=O)(=O)c1ccc(C(=O)O)cc1 [Compound 558, N-(3-Methyl-6-trifluoromethyl-benzo[b]thiophen-2-yl)-N-(butyl)-4-carboxy-benzenesulfonamide] | 7.00 | – | 80.9 | –
N-(3-Methyl-benzo[b]thiophen-2-yl)-N-(5,5,5-trifluoro-pentyl)-4-thiomorpholin-4-yl-benzenesulfonamide [Compound 749] | – | – | – | 64

More lines, in order of rising pIC50, values ahead:

pIC50 | inhibition at 0.5 µM [%] | inhibition at 0.2 µM [%] | Compound | % Inh @ 0.2 (μM) [%]
7.74 | – | 98 | COC(=O)[C@@H](C)CN(c1sc2ccccc2c1C)S(=O)(=O)c1ccccc1 [Compound 94, N-(3-Methyl-benzo[b]thiophen-2-yl)-N-[2(S)-methyl-2-carbomethoxy-ethyl]-benzenesulfonamide] | –
7.78 | – | 101 | Cc1c(N(CCC(F)(F)F)S(=O)(=O)c2ccc(-c3nnn[nH]3)cc2)sc2ccccc12 [Compound 572, N-(3-Methyl-benzo[b]thiophen-2-yl)-N-(3,3,3-trifluoro-propyl)-4-(1H-tetrazol-5-yl)-benzenesulfonamide] | –
7.82 | – | 101 | CCS(=O)(=O)N(Cc1ccc(F)c(C(F)(F)F)c1)c1sc2ccccc2c1Cl [Compound 190, N-(3-Chloro-benzo[b]thiophen-2-yl)-N-(4-fluoro-3-trifluoromethyl-benzyl)-ethanesulfonamide] | –
7.85 | – | 100 | CS(=O)(=O)N(Cc1ccc(F)c(F)c1)c1sc2ccccc2c1CO [Compound 216, N-(3,4-Difluoro-benzyl)-N-(3-hydroxymethyl-benzo[b]thiophen-2-yl)-methanesulfonamide] | –
8.00 | – | 102 | CC(=O)c1c(N(Cc2ccc(F)c(C(F)(F)F)c2)S(=O)(=O)c2ccccc2)sc2ccccc12 [Compound 314, N-(3-Acetyl-benzo[b]thiophen-2-yl)-N-(4-fluoro-3-trifluoromethyl-benzyl)-benzenesulfonamide] | –
8.40 | – | 98 | CC(O)c1c(N(Cc2ccc(F)c(F)c2)S(C)(=O)=O)sc2ccccc12 (centres unmarked) [Compound 225, N-(3,4-Difluoro-benzyl)-N-[3-(1-hydroxy-ethyl)-benzo[b]thiophen-2-yl]-methanesulfonamide] | –
8.52 | – | 101 | O=c1[nH]c(-c2ccc(S(=O)(=O)N(Cc3ccc(F)c(C(F)(F)F)c3)c3sc4ccccc4c3Br)cc2)no1 [Compound 511, N-(3-Bromo-benzo[b]thiophen-2-yl)-N-(4-fluoro-3-trifluoromethyl-benzyl)-4-(5-oxo-4,5-dihydro-[1,2,4]oxadiazol-3-yl)-benzenesulfonamide] | –
8.70 | – | 102 | Cc1c(N(Cc2cc(F)c(F)c(F)c2)S(=O)(=O)c2ccc(C(=O)O)cc2)sc2ccccc12 [Compound 517, N-(3-Methyl-benzo[b]thiophen-2-yl)-N-(3,4,5-trifluoro-benzyl)-4-carboxy-benzenesulfonamide] | –
8.85 | – | 95 | O=S(=O)(c1ccccc1)N(Cc1ccc(F)c(F)c1)c1sc2ccccc2c1CO [Compound 213, N-(3,4-Difluoro-benzyl)-N-(3-hydroxymethyl-benzo[b]thiophen-2-yl)-benzenesulfonamide] | –
